In ChEMBL document CHEMBL1126623, “Neuraminidase-resistant hemagglutination inhibitors: acrylamide copolymers containing a C-glycoside of N-acetylneuraminic acid” (J Med Chem, 1993):

Species on record: Gallus gallus
Test: Tested for inhibition of agglutination of chicken erythrocytes in vitro
Assay type: functional

- Ki: 400 nM
Compound: C=CC(=O)NCCSCCCC1(C(=O)O)CC(O)C(NC(C)=O)C(C(O)C(O)CO)O1 (stereo unspecified)
